Laboratory results reported in publication PMC10824102, “Identification of small molecule inhibitors of G3BP-driven stress granule formation” (The Journal of Cell Biology, 2024).

How the values were obtained:
[1] = system: eIF3η and PABPC1 puncta in U2OS cells; test: Immunofluorescence of additional stress granule markers after preincubation; type: cell-based; settings: 50 μM pretreatment, 250 μM NaAsO2 for 30 min
Method: (§1) U2OS cells or U2OS cells stably expressing G3BP1-GFP were seeded in four-well Lab-Tek II Chambered Coverglass (1055360; Thermo Fisher Scientific). For preincubation experiments, cells were treated with 50 μM G3I compound for 20 min or 24 h, followed by 250 μM NaAsO2 and 50 μM G3I compound for 30 min. For posttreatment, cells were treated with 250 μM NaAsO2 for 30 min, followed by treatment with 250 μM NaAsO2 and 50 μM G3I compound for 5 min. Cells were then washed twice with PBS and fixed with 4% PFA in PBS for 10 min. Cells were then washed three times with PBS (5 min between each wash), permeabilized with 0.5% Triton X-100 in PBS for 10 min, and washed twice with PBS. Next, cells were blocked for 1 h with 3% BSA in PBS at room temperature, followed by incubation with primary antibodies diluted in 3% BSA overnight at 4°C. Cells were then washed three times with PBS (5 min between each wash) and incubated with secondary antibodies and Hoechst diluted in 3% BSA at room temperature for 1 h. Cells were then washed three times with PBS (5 min between each wash) and imaged. […]

[2] = biological target: T1, co-condensation of RNA, G3BP1, and caprin 1 (Homo sapiens, UniProt Q13283); test: In vitro LLPS, three-component system (G3BP1, caprin 1, RNA); type: biochemical; settings: for IC50, inhibition of G3BP1-GFP in vitro phase separation / LogIC50, inhibition of G3BP1-GFP in vitro phase separation / IC50: 1.5 μM G3BP1, 1.5 μM caprin 1, 20 ng/μl total RNA; for IC50: read-out: IC50, inhibition of G3BP1-GFP in vitro phase separation; for co-condensation of caprin 1, G3BP1, and RNA: result in words; for HillSlope, inhibition of G3BP1-GFP in vitro phase separation: slope at the steepest part of the curve; for Bottom (lowest value of curve), percent inhibition of in vitro phase separation / Top (highest value of curve), percent inhibition of in vitro phase separation: three-component system
T1 construct: made in house; host or cells: E. coli BL21 (DE3)
Method: LLPS assays were performed in 30 μl total volume at 25°C at pH 7.4 in buffer containing 37 mM Tris, pH 7.5, 116 mM NaCl, 0.33% NP-40, 2.6% glycerol, 0.5 mM DTT with 20 ng/μl total cellular RNA from U2OS cells and 1.425 μM G3BP1, 0.075 μM FLAG-GFP-G3BP1, and 1.5 μM caprin 1. Reactions were initiated by adding G3BP1/caprin 1 protein mix to cellular RNA, followed by 3 min of shaking at 450 rpm and then incubation for 70 min in the dark. For condensates formed with G3BP1 and RNA, 20 μM purified G3BP1 and 100 ng of total cellular RNA from HEK293T cells were added to a buffer consisting of 100 mM NaCl and 16.7 mM HEPES (pH 7.5) in the presence of the indicated dose of G3Ib or vehicle control.

[3] = system: TDP-43 accumulation in stress granules in U2OS cells; test: TDP-43 immunofluorescence after preincubation and arsenite; type: cell-based; settings: 50 μM pretreatment, 250 μM NaAsO2 for 30 min
Method: as §1

T1 sequence (Q13283 whole entry): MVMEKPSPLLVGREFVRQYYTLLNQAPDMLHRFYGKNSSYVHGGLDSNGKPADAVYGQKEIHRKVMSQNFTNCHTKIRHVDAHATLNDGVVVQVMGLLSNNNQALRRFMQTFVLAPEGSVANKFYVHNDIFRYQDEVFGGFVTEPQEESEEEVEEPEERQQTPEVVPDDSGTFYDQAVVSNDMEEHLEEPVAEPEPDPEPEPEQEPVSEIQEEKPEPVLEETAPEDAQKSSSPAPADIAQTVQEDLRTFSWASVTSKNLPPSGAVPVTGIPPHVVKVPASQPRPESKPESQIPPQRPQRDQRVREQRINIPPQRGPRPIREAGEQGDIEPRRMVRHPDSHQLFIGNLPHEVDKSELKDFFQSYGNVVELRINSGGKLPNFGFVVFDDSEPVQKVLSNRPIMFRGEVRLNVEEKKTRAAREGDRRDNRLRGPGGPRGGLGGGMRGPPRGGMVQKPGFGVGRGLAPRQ
T1 sequence (Q13283 whole entry): as above

Compound	eIF3η and PABPC1 puncta [1]	IC50, inhibition of G3BP1-GFP in vitro phase separation [2]	LogIC50, inhibition of G3BP1-GFP in vitro phase separation [2]	LogIC50, inhibition of G3BP1-GFP in vitro phase separation ([2]; listed as G3Ia')	IC50 [2] [µM]	co-condensation of caprin 1, G3BP1, and RNA [2]	HillSlope, inhibition of G3BP1-GFP in vitro phase separation [2]	HillSlope, inhibition of G3BP1-GFP in vitro phase separation ([2]; listed as G3Ia')	Bottom (lowest value of curve), percent inhibition of in vitro phase separation [2]	Top (highest value of curve), percent inhibition of in vitro phase separation [2]	TDP-43 accumulation in stress granules [3]	LogIC50, inhibition of G3BP1-GFP in vitro phase separation ([2]; listed as G3Ib')	HillSlope, inhibition of G3BP1-GFP in vitro phase separation ([2]; listed as G3Ib')
COCCC(NC(=O)C(C)NC(=O)C(NC(=O)C(NC(=O)C(F)CC(C)(C)C)C(C)(C)O)C(C)c1ccccc1)C(=O)N(C)Cc1ccccc1 (stereo not shown) [G3Ia]	reduced eIF3η and PABPC1 puncta	Unstable	0.6508	Unstable	4.48	disrupted the co-condensation	1.354	Unstable	Unstable	Unstable	not		
CC(NC(=O)C(NC(=O)C(NC(=O)CCC(C)(C)C)C(C)(C)O)C(C)c1ccccc1)C(=O)N1CCCC1c1ccccc1 (stereo not shown) [G3Ib]	reduced eIF3η and PABPC1 puncta	Unstable	0.5379		3.45	disrupted the co-condensation	1.004		4.401	1.518	not	Unstable	Unstable
